The subject of data set [1] is SW48 human colorectal cancer cells (MSI-H cancer cells). The data set is described as follows: SW48 cell viability, CellTiter-Glo, 120 hours (Example B). The conditions noted are these: Homo sapiens. A general note: In ATP-based viability assays light output follows the ATP content of the culture.
Data set [2] can be described thus: Cell culture media unbound percentage and stability by rapid equilibrium dialysis (Example C). In kind it is in vitro ADME. The conditions noted are these: bovine, cell assay medium (RPMI-1640 with 10% fetal bovine serum), pH 7.4, rapid equilibrium dialysis, 4 hours at 37° C., read-out: Cell Culture Media Binding (% unbound). The essentials: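 Compound spiked into cell culture medium at nominal 1 μM and dialysed against PBS (100 mM sodium phosphate + 150 mM NaCl, pH 7.4) by rapid equilibrium dialysis, triplicate, 4 h at 37° C with shaking. LC-MS/MS peak area ratios gave percent unbound (receiver/donor) and percent stability (240 min vs 0 min).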
In general terms: Equilibrium dialysis compares concentrations on both sides of a semipermeable membrane.

The test system of data set [3] is SW48 human colorectal cancer cells. The data set is described as follows: Calculated free drug potency in SW48 cell assay, corrected with media free fraction (Example C). In kind it is cell-based. The conditions noted are these: Homo sapiens, SW48, SW48 pCC50 corrected with measured free fraction in cell assay media. The essentials: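 Compound spiked at nominal 1 μM into cell assay medium and dialysed against PBS (100 mM sodium phosphate, 150 mM NaCl, pH 7.4) by rapid equilibrium dialysis, 4 h, 37 °C, shaking. Percent unbound from LC-MS/MS peak area ratios (240 min vs 0 min); cell assay concentrations corrected by this free fraction.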

The target in data set [4] is T1, recombinant full-length WRN protein (1-1432) (Homo sapiens, UniProt Q14191).
T1 construct: recombinant full-length WRN protein (1-1432)
T1 sequence (Q14191 whole entry): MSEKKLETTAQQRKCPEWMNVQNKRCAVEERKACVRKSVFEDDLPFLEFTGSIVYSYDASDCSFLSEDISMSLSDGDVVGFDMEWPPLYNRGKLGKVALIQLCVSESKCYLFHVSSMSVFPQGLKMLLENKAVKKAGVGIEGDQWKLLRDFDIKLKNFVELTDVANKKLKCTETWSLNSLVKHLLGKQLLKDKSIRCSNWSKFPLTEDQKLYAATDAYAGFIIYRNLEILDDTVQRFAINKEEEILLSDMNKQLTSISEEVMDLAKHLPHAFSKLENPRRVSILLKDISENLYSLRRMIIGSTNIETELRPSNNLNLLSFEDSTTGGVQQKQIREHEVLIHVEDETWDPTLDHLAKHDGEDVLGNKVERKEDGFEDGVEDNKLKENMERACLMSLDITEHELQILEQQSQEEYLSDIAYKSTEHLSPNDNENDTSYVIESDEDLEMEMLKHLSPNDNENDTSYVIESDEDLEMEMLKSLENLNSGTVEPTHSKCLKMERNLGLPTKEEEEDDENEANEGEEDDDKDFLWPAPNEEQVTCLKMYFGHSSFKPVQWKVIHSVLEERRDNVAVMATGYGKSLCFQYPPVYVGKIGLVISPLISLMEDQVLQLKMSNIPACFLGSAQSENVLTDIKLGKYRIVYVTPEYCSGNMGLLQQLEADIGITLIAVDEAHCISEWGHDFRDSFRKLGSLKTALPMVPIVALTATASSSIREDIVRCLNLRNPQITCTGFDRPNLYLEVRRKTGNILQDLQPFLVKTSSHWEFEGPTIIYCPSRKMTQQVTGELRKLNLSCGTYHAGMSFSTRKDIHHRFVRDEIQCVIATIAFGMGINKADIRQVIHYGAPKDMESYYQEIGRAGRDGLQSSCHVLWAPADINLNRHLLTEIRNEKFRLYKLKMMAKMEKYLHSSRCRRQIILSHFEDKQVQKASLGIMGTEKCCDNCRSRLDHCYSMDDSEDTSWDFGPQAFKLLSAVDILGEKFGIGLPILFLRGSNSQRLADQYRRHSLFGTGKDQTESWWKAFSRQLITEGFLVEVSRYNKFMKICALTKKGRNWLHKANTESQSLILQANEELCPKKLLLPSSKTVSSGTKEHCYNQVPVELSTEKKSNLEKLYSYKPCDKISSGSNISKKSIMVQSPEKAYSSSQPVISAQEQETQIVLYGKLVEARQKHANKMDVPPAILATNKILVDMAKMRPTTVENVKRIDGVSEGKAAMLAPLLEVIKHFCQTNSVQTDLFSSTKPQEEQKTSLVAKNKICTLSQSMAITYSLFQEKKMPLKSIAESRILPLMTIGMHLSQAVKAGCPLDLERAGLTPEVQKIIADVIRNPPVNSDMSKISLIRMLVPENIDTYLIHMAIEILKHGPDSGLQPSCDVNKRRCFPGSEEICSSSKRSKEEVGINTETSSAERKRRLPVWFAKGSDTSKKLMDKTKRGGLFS
The data set is described as follows: WRN unwinding activity, fluorogenic 384-well assay (Example A). Type of data set: biochemical. The conditions noted are these: WRN unwinding activity, 4 hr; Table 2; read-out: 4 hr UNW pIC50 (converted). The method in brief: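 200 pM enzyme (2× stock) preincubated with compound 4 h at ambient temperature, then 200 μM ATP and 12 nM quenched TAMRA-labelled dsDNA (2× stocks) added for 60 min; EDTA-quenched. Buffer 25 mM Tris pH 8.0, 5 mM NaCl, 2 mM MgCl2. Fluorescence at 525/598 nm; pIC50 from four-parameter fit.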

Where [5] appears, read: SW48, 120 h, read-out: SW48 pCC50, SW48 cell viability, 120 hours incubation (converted), Table 2.
Where [6] appears, read: SW48, read-out: SW48 pCC50, measured potency from Example B, as repeated in Table 3 (converted).

Each structure is given as a SMILES string. Structures can show the parent of a compound that is named as a salt. Where two headings read alike, the source gives them in different places.

Regarding `CN(c1ccc([C@H]2CCC[C@@H](COc3ccc(C(F)(F)F)cc3)[C@@H]2C(=O)O)cc1)S(=O)(=O)c1ccc2c(c1)nc(CCN)n2C` [Example 273], the figures for the CC50 in data set [1] (setting [5]), in data set [1] (setting [6]) and in data set [3] were 7940 nM, 7940 nM and 64.6 nM, respectively. For the same molecule, the fraction unbound at 4 h, 1 µM in data set [2] is 0.0082. Further, the IC50 in data set [4] was 5.01 nM.
With `CN(C)CCc1nc2cc(S(=O)(=O)N(C)c3ccc([C@H]4CCC[C@@H](COc5ccc(C(F)(F)F)cc5)[C@@H]4C(=O)O)cc3)ccc2n1C` [Example 275], the results for the CC50 in data set [1] (setting [5]), in data set [1] (setting [6]) and in data set [3] were 5010 nM, 5010 nM and 41.7 nM, respectively. In addition, the fraction unbound at 4 h, 1 µM in data set [2] came to 0.0083. Besides, the IC50 in data set [4] is 2 nM.
For `Cc1nc2cc(S(=O)(=O)N(C)c3ccc([C@H]4CCC[C@@H](C(=O)Nc5ccc(C(F)(F)F)cc5F)[C@@H]4C(=O)O)cc3)ccc2n1CCN` [Example 277, (1R,2S,6R)-2-(4-((1-(2-aminoethyl)-N,2-dimethyl-1H-benzo[d]imidazole)-5-sulfonamido)phenyl)-6-((2-fluoro-4-(trifluoromethyl)phenyl)carbamoyl)cyclohexane-1-carboxylic acid], the CC50 is 1580 nM in data set [1] (setting [5]), 1580 nM in data set [1] (setting [6]) and 309 nM in data set [3]. Further, in data set [2], the fraction unbound at 4 h, 1 µM turned out to be 0.197. In data set [4], the IC50 was 0.631 nM.
For the molecule `Cc1nc2cc(S(=O)(=O)N(C)c3ccc([C@H]4CCC[C@@H](C(=O)Nc5ccc(C(F)(F)F)cc5F)[C@@H]4C(=O)O)cc3)ccc2n1CCN(C)C` [Example 278, (1R,2S,6R)-2-(4-((1-(2-(dimethylamino)ethyl)-N,2-dimethyl-1H-benzo[d]imidazole)-5-sulfonamido)phenyl)-6-((2-fluoro-4-(trifluoromethyl)phenyl)carbamoyl)cyclohexane-1-carboxylic acid], the CC50 is 126 nM in data set [1] (setting [5]), 126 nM in data set [1] (setting [6]) and 26.3 nM in data set [3]. Also, in data set [2], the fraction unbound at 4 h, 1 µM turned out to be 0.208. Further, in data set [4], the IC50 was 0.631 nM.
With `CCO[C@@H]1C[C@H](c2ccc(N(C)S(=O)(=O)c3ccc4c(c3)nc3n4CCCC3)cc2)[C@@H](C(=O)O)[C@H](C(=O)Nc2ccc(C(F)(F)F)cc2F)C1` [Example 279, (1R,2R,4R,6S)-4-ethoxy-2-((2-fluoro-4-(trifluoromethyl)phenyl)carbamoyl)-6-(4-((N-methyl-1,2,3,4-tetrahydrobenzo[4,5]imidazo[1,2-a]pyridine)-7-sulfonamido)phenyl)cyclohexane-1-carboxylic acid], the figures for the CC50 in data set [1] (setting [5]), in data set [1] (setting [6]) and in data set [3] were 126 nM, 126 nM and 10 nM, respectively. Also, the fraction unbound at 4 h, 1 µM in data set [2] was determined as 0.079. For the same molecule, the IC50 in data set [4] is 2 nM.
`CCO[C@@H]1C[C@H](c2ccc(N(C)S(=O)(=O)c3ccc4[nH]c(C)nc4c3)cc2)[C@@H](C(=O)O)[C@H](C(=O)Nc2ccc(C(F)(F)F)cc2F)C1` [Example 281, (1R,2S,4R,6R)-2-(4-((N,2-dimethyl-1H-benzo[d]imidazole)-5-sulfonamido)phenyl)-4-ethoxy-6-((2-fluoro-4-(trifluoromethyl)phenyl)carbamoyl)cyclohexane-1-carboxylic acid]: the CC50 in data set [1] (setting [5]) is 794 nM; in data set [1] (setting [6]), 794 nM; in data set [3] it was 117 nM. Further, in data set [2], the fraction unbound at 4 h, 1 µM amounted to 0.148. In addition, in data set [4], the IC50 is 1.58 nM.
`CN(c1ccc([C@H]2CCC[C@@H](C(=O)Nc3ccc(C(F)(F)F)cc3F)[C@@H]2C(=O)O)cc1)S(C)(=O)=O` [Example 285, (1R,2R,6S)-2-((2-fluoro-4-(trifluoromethyl)phenyl)carbamoyl)-6-(4-(N-methylmethylsulfonamido)phenyl) cyclohexane-1-carboxylic acid]: the CC50 in data set [1] (setting [5]) was 6310 nM; in data set [1] (setting [6]) it was 6310 nM; in data set [3] it was 3470 nM. Besides, the fraction unbound at 4 h, 1 µM in data set [2] is 0.549. Further, the IC50 in data set [4] is 31.6 nM.
Take `CCO[C@@H]1C[C@H](c2ccc(NS(=O)(=O)c3ccc4c(c3)nc(C)n4C)cc2)[C@@H](C(=O)O)[C@H](C(=O)Nc2ccc(C(F)(F)F)cc2F)C1` [Example 288, (1R,2S,4R,6R)-2-(4-((1,2-dimethyl-1H-benzo[d]imidazole)-5-sulfonamido)phenyl)-4-ethoxy-6-((2-fluoro-4-(trifluoromethyl)phenyl)carbamoyl)cyclohexane-1-carboxylic acid]: the CC50 in data set [1] (setting [5]) was 1000 nM; in data set [1] (setting [6]), 1000 nM; in data set [3], 21.4 nM. Moreover, the fraction unbound at 4 h, 1 µM in data set [2] is 0.0214. Also, the IC50 in data set [4] is 5.01 nM.
As to `Cc1nc2cc(S(=O)(=O)N(C)c3ccc([C@H]4CCC[C@@H](C(=O)Nc5ccc(C(F)(F)F)cc5F)[C@@H]4C(=O)O)cc3)cc(CCN)c2n1C` [Example 289, (1R,2S,6R)-2-(4-((7-(2-aminoethyl)-N,1,2-trimethyl-1H-benzo[d]imidazole)-5-sulfonamido)phenyl)-6-((2-fluoro-4-(trifluoromethyl)phenyl)carbamoyl)cyclohexane-1-carboxylic acid, hydrochloride], the results for the CC50 in data set [1] (setting [5]) and in data set [3] were 10000 nM and 4070 nM, respectively. Further, the fraction unbound at 4 h, 1 µM in data set [2] was determined as 0.412. Further, in data set [4], the IC50 is 1.58 nM.
With `Cc1nc2cc(S(=O)(=O)N(C)c3ccc([C@H]4CCC[C@@H](C(=O)Nc5ccc(C(F)(F)F)cc5F)[C@@H]4C(=O)O)cc3)cc(CCN(C)C)c2n1C` [Example 290, (1R,2S,6R)-2-(4-((7-(2-(dimethylamino)ethyl)-N,1,2-trimethyl-1H-benzo[d]imidazole)-5-sulfonamido)phenyl)-6-((2-fluoro-4-(trifluoromethyl)phenyl)carbamoyl)cyclohexane-1-carboxylic acid], the CC50 in data set [1] (setting [5]) was 398 nM; in data set [1] (setting [6]), 398 nM; in data set [3], 162 nM. The fraction unbound at 4 h, 1 µM in data set [2] came to 0.411. The IC50 in data set [4] is 1.58 nM.
On to `Cc1cc([C@H]2CCC[C@@H](C(=O)Nc3ccc(C(F)(F)F)cc3F)[C@@H]2C(=O)O)ccc1N(C)S(=O)(=O)c1ccc2c(c1)nc(C)n2C` [Example 295, (1R,2R,6S)-2-((2-fluoro-4-(trifluoromethyl)phenyl)carbamoyl)-6-(3-methyl-4-((N,1,2-trimethyl-1H-benzo[d]imidazole)-5-sulfonamido)phenyl)cyclohexane-1-carboxylic acid], for which the CC50 in data set [1] (setting [5]) was 1580 nM; in data set [1] (setting [6]), 1580 nM; in data set [3], 186 nM. For the same molecule, the fraction unbound at 4 h, 1 µM in data set [2] turned out to be 0.118. In data set [4], the IC50 was 1.58 nM.
With `Cc1nc2cc(S(=O)(=O)N(C)c3ccc([C@H]4CCC[C@@H](C(=O)Nc5ccc(C(F)(F)F)cc5F)[C@@H]4C(=O)O)cc3Cl)ccc2n1C` [Example 296], the CC50 was 1580 nM in data set [1] (setting [5]), 1580 nM in data set [1] (setting [6]) and 155 nM in data set [3]. Further, in data set [2], the fraction unbound at 4 h, 1 µM amounted to 0.0979. Also, in data set [4], the IC50 is 1.58 nM.
Consider `CCOC1CC(C(=O)Nc2ccc(C(F)(F)F)cc2)C(C(=O)O)C(c2ccc(N(C)S(=O)(=O)c3ccc4c(c3)nc(C)n4C)cc2)C1` [Example 330, rel-(1R,2R,4R,6S)-4-ethoxy-2-((4-(trifluoromethyl)phenyl)carbamoyl)-6-(4-((N,1,2-trimethyl-1H-benzo[d]imidazole)-5-sulfonamido)phenyl)cyclohexane-1-carboxylic acid], for which the CC50 is 398 nM in data set [1] (setting [5]), 398 nM in data set [1] (setting [6]) and 40.7 nM in data set [3]. Besides, the fraction unbound at 4 h, 1 µM in data set [2] stood at 0.102. Also, in data set [4], the IC50 is 5.01 nM.
Consider `CN(c1ccc([C@H]2CCC[C@@H](C(=O)Nc3ccc(C(F)(F)F)cc3F)[C@@H]2C(=O)O)cc1)S(=O)(=O)c1ccc2c(c1)nc(Cl)n2C` [Example 365, (1R,2S,6R)-2-(4-((2-chloro-N,1-dimethyl-1H-benzo[d]imidazole)-5-sulfonamido)phenyl)-6-((2-fluoro-4-(trifluoromethyl)phenyl)carbamoyl)cyclohexane-1-carboxylic acid], for which the values for the CC50 in data set [1] (setting [5]), in data set [1] (setting [6]) and in data set [3] were 398 nM, 398 nM and 26.3 nM, respectively. The fraction unbound at 4 h, 1 µM in data set [2] stood at 0.0658. In data set [4], the IC50 was 3.16 nM.
Consider `CN(c1ccc([C@H]2CCC[C@@H](C(=O)Nc3ccc(C(F)(F)F)cc3F)[C@@H]2C(=O)O)cc1)S(=O)(=O)c1ccc2c(c1)nc(CO)n2C` [Example 372, (1R,2R,6S)-2-((2-fluoro-4-(trifluoromethyl)phenyl)carbamoyl)-6-(4-((2-(hydroxymethyl)-N,1-dimethyl-1H-benzo[d]imidazole)-5-sulfonamido)phenyl)cyclohexane-1-carboxylic acid], for which the CC50 in data set [1] (setting [5]) was 200 nM; in data set [1] (setting [6]), 200 nM; in data set [3], 41.7 nM. Also, in data set [2], the fraction unbound at 4 h, 1 µM was 0.208. The IC50 in data set [4] was 1.58 nM.

The values are drawn from patent US12662451B2, “Chemical compounds and uses thereof” (GLAXOSMITHKLINE INTELLECTUAL PROPERTY (NO.4) LIMITED, priority 2023, dated 2026).
